The record followed here is patent publication US20250352555A1, “METHOD OF INCREASING IMMUNE CELL ACTIVATION AND/OR TREATING CANCER USING DIBENZOXAZEPINONES” (VASCULAR THERAPEUTICS PTY LTD, priority 2022, published 2025).

One series deals with B16F10 melanoma. Kind of series: Melanoma growth in C57BL/6J mice bearing s.c. B16F10 tumors. It counts as in vivo, mouse. As to the method: Melanoma growth studies in mice. Six-to-eight week old C57BL/6J mice (sourced from Australian Resource Centre, Perth) were inoculated subcutaneously (s.c.) with B16F10 cells (1×10^5 cells/mouse in 100 μl DMEM containing 10% FBS with 50% Matrigel). InVivoPlus anti-mouse PD-1 (CD279) (BioXCell, BP0033-2) or InVivoPlus polyclonal Armenian hamster IgG (Bio X Cell, BP0091) was administered intraperitoneally (i.p.) (100 μg) twice a week. Treatment commenced on Day 7.
Alternatively, BT2 was suspended at 10 mg/ml in vehicle (saline containing 0.5% (v/v) Tween 80 and 0.01% (v/v) DMSO) and sonicated prior to administration. Vehicle or BT2 was administered i.p. (20 ml/kg and 200 mg/kg, respectively) once a day on a 5 days-on/2 days-off schedule. Treatment commenced when tumors were palpable on Day 5.
Tumors were measured by length and width in mm twice per week for MDA-MB-435 in SCID mice and by length, width and height in mm once per day for B16F10 in C57BL/6J mice. Tumor volumes were calculated using formula V=(L×W×H×π)/6 (B16F10) or V=L×W×W/2 (MDA-MB-435). If a second tumor was detected in an animal, both tumor volumes were measured and their volumes combined. Animal protocols were approved by the Explora Biolabs' Institutional Animal Care and Use Committee (IACUC) and the UNSW Animal Care and Ethics Committee.
The preceding xenograft studies showing anti-tumor effects in immunocompromised mice when BT2 is delivered intratumorally (i.t.) but not systemically (i.p.) led the inventors to hypothesize that BT2 could rely upon an active immune system in order to effect tumor growth inhibition. Therefore, the effect of BT2 was tested in an immunocompetent mouse model of melanoma growth using B16F10 melanoma. […]
To assess the effect of BT2 in the same model, C57BL/6J mice bearing s.c. B16F10 tumors were administered with BT2 or vehicle (200 mg/kg or 20 ml/kg, respectively, i.p.) once a day on a 5 days-on/2 days-off schedule. […] Tumor size on Day 17 measured using callipers (FIG. 10A) correlated with isolated weighed tumors (FIG. 10B).

The next series concerns IFN-γ. Kind of series: Mouse serum IFN-γ levels by ELISA. Type of series: in vivo. The conditions noted are these: B16F10 tumor-bearing mice Day 17, 200 mg/kg i.p., vs vehicle. As to the method:
Mouse serum IFN-γ levels. Whole blood was collected from Day 17 mice and spun at 1500 g for 10 min at 4° C. Serum was extracted from the top layer and stored at −80° C. IFN-γ levels were measured using the mouse IFN-γ (Improved) ELISA kit (Invitrogen, cat. no. KMC4021) according to the manufacturer's protocol, with absorbance being read at 450 nm. GraphPad Prism 9 software was used to generate the standard curve. IFN-γ levels in mouse serum were measured alongside the standard curve by using GraphPad Prism 9.
IFN-γ is a biomarker of cellular immunity and the antitumor immune response. Elevated IFN-γ is associated with a systemic immune response in cancer patients and tumor-bearing mice after immune checkpoint therapy. Since IFN-γ is produced by T cells, levels of IFN-γ in the sera of tumor-bearing mice treated with vehicle or BT2 were determined.
A general note: An ELISA detects its analyte on a solid surface through an enzyme-linked reagent.

The next series has as its system MeWo cells. Kind of series: Apoptosis, flow cytometry with Annexin V-FITC, MeWo. It counts as cell-based, human. Conditions: 1 μM, 24 h. As to the method:
Flow cytometry with Annexin V-FITC. Cells were seeded into 6 well plates in normal culture medium containing 10% FBS. After culturing overnight, the cells were incubated in complete medium containing vehicle, BT2 or SCH772984 at 1 μM and left for 24 h. The culture medium was removed and the cells were washed with PBS. Accutase (Stem Cell Technologies, cat. no. 07920) was used to detach the cells. The cells were then washed and centrifuged at 300 g for 5 min and resuspended at 1×10^6 cells/ml in 500 μl of 1× binding buffer (Annexin V-FITC Apoptosis Staining/Detection Kit, Abcam, cat. no. ab14085). The cells were transferred to 12×75 mm tubes and annexin V-FITC/propidium iodide (PI) was added and incubated for 5 min at 22° C. protected from light. Stained cell suspensions were analyzed by flow cytometry using a BD LSRFortessa X20.
The morphology of A375 and MeWo cells exposed to 1 μM of BT2 or SCH772984 for 24 h was also assessed.
(Flow cytometry measures light scatter and fluorescence of single cells or particles in a stream.)

In a further series the test system is PD-1. Kind of series: Western blotting for PD-1, Jurkat T cells. Type of series: cell-based, human. Conditions: various concentrations, 24 h. As to the method: Western blotting. Cells were treated with compounds and times indicated and total cell lysates were prepared in RIPA buffer. Lysates (10 μg) were resolved by SDS-PAGE and transferred to Immobilon-P polyvinylidene difluoride (PVDF) membranes (Millipore, USA).
Membranes were blocked with 5% skim milk and incubated with rabbit monoclonal anti-c-Jun (Abcam, cat. no. ab32137; mouse, rat and human reactive) antibody, rabbit monoclonal anti-PD-1 (Abcam, cat. no. ab214421) antibody, mouse monoclonal β-actin antibody (Sigma-Aldrich, cat. no. A5316), anti-phospho-SAPK/JNK (Thr^183/Tyr^185) (98F2) (CST, cat. no. 4671) antibody, anti-phospho-p44/42 MAPK (ERK1/2) (Thr^202/Tyr^204) (D13.14.4E) (CST, cat. no. 4370) antibody, anti-phospho-p38 MAPK (Thr^180/Tyr^182) (D3F9) (CST, cat. no. 4511) antibody, anti-SAPK/JNK antibody (CST, cat. no. 9252), anti-p44/42 MAPK (ERK1/2) (137F5) antibody (CST, cat. no. 4695), anti-p38 MAPK antibody (CST, cat. no. 9212), anti-DUSP8 antibody (Abcam, cat. no. ab198175) or anti-c-MAF (BLR045F) antibody (Abcam, cat. no. ab243901). This was followed by incubation with horseradish peroxidase-conjugated secondary goat anti-rabbit (DAKO, cat. no. P0448) or goat anti-mouse (DAKO, cat. no. P0447) antibody. Chemiluminescence was detected using the Western Lightning Chemiluminescence system (Thermo Scientific, USA) and ImageQuant™ LAS 4000 biomolecular imager (GE Healthcare Life Sciences, USA). Band intensity in images generated with the LAS 4000 was quantified using NIH Image J.

For `CCOC(=O)Nc1ccc2c(c1)C(=O)N(CC)c1ccccc1O2` [BT2, (10-ethyl-11-oxo-10,11-dihydro-dibenzo[b,f][1,4]oxazepin-2-yl)-carbamic acid ethyl ester], the “B16F10 tumor growth (volume)” value in the series on B16F10 melanoma (C57BL/6J mice, 200 mg/kg i.p. once a day, 5 days-on/2 days-off, from Day 5) is reported as “significant B16F10 growth inhibition from Day 9”. The body weight result in the series on B16F10 melanoma (C57BL/6J mice, B16F10, 200 mg/kg i.p. once a day, 5 days-on/2 days-off) was “no adverse effect on body weight”. Further, in the series with B16F10 melanoma (Day 17, 200 mg/kg i.p., vehicle 75%), the “mice with tumor size exceeding 500 mm^3 (Kaplan-Meier analysis)” value is “none”. The “circulating (serum) IFN-γ levels” value with IFN-γ was “elevated”. Further, in the series on MeWo cells, the “apoptosis (Annexin V-FITC+ PI−)” value is reported as “increased apoptosis”. For the same molecule, in the series on PD-1, the “PD-1 expression (Western blot)” value is “suppressed by BT2 in a dose-dependent manner”.
